This passage reports EC50 and IC50 results from ChEMBL document CHEMBL1201862, “PubChem BioAssay data set” (2004).

Active and inactive are the calls of the source. For most assays here, no stated cut-off is given here; in the data, actives have a measured EC50 and inactives only a lower limit.

A short description of experiment [1]: Luminescence Cell-Based Dose Confirmation HTS to Identify Activators of 5'UTR Stem-Loop Driven Alpha-Synuclein mRNA Translation in H4 Neuroglioblastoma Cells. [Related pubchem assays: 1829 (Project Summary), 1814 (Primary HTS)]. The class given is functional.
Experiment [2] can be described thus: Luminescence Cell-Based Dose Response HTS to Identify Activators of Luciferase Translation or Activity in H4 […] Cells. [Related pubchem assays: 1829 (Project Summary), 1814 (Primary HTS)]. It is filed as functional.
The subject of another experiment is H4. Put plainly: Luminescence Cell-Based Dose Response HTS to Identify Activators of 5'UTR Stem-Loop Driven Prion Protein mRNA Translation in H4 Neuroglioblastoma Cells. [Related pubchem assays: 1829 (Project Summary), 1814 (Primary HTS)]. It is filed as functional. The note with it: Homo sapiens.
In experiment [3] the target is T1, Corticotropin-releasing factor receptor 2/Corticotropin-releasing factor-binding protein (Homo sapiens, UniProt P24387+Q13324).
T1 sequence (Q13324 whole entry): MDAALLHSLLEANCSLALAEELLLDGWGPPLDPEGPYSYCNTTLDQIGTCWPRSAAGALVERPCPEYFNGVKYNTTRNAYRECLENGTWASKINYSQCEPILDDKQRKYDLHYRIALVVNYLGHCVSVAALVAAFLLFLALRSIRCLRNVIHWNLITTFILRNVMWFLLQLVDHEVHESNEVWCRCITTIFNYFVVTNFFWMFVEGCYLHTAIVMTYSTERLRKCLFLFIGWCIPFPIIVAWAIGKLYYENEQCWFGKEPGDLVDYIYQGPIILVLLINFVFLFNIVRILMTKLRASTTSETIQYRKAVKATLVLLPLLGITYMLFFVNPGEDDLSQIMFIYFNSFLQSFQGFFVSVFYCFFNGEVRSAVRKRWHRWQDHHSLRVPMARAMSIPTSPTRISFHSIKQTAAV
T1 sequence (P24387 whole entry): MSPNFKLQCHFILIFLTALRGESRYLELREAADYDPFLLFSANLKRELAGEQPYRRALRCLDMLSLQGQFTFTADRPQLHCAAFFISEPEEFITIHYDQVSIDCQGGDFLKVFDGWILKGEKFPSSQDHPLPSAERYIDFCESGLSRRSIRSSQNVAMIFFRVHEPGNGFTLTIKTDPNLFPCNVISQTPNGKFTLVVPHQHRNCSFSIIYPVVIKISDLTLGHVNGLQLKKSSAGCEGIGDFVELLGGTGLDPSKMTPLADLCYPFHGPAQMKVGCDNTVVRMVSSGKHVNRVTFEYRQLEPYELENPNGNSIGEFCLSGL
Put plainly: Dose Response confirmation of uHTS hits for small molecule antagonists of the CRF-binding protein and CRF-R2 receptor complex. It is filed as functional. The note with it: read-out: IC50_Mean.

Experiment [4] deals with T1, Corticotropin-releasing factor receptor 2/Corticotropin-releasing factor-binding protein. Description: activators of CRF receptor 2 with binding protein – uHTS hits, confirmation (AID 602473). It is filed as functional. The note with it: read-out: EC50_Mean.
The nature of experiment [5]: Luminescence Cell-Based Dose Confirmation HTS to Identify Inhibitors of Platelet Dense Granule Release. [Related pubchem assays: 1663 (Primary HTS), 1678 (Summary of Project)]. The class given is functional.
In experiment [6] the target is Luciferin 4-monooxygenase (Photinus pyralis, UniProt P08659). Put plainly: inhibition of purified Photinus pyralis luciferase – biochemical, luminescence, dose response (AID 1891).
Experiment [7] concerns the target T2, RNA-binding protein pos-1 (Caenorhabditis elegans, UniProt G5EF15).
T2 sequence (G5EF15 whole entry): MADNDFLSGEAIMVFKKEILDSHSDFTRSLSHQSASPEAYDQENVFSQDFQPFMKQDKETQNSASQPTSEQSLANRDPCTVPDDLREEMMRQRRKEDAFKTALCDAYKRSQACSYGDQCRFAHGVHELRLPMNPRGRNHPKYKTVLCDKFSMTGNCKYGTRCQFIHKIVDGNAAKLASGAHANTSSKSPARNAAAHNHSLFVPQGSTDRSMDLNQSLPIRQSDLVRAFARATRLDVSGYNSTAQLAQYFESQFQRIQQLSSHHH
Description: disruptors of C. elegans POS-1 RNA interaction – biochemical, fluorescence polarization, dose response (AID 1964).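 Further: purified POS-1 fused to maltose binding protein made in E. coli; potency of compounds blocking POS-1 binding to fluorescent RNA.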 On the technique in general: Polarisation of emitted light reports the rotation of a fluorescent probe.

For another experiment, the system named is H9c2. Put plainly: cells. The class given is functional, cell-based. The note with it: Rattus norvegicus, H9c2, Myocardium.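 Further: confirmatory concentration-response retest of ultra-high-throughput screening hits for modulation of myocardial damage; cell death induced by hydrogen peroxide oxidative stress; compound pretreatment for 60 min then peroxide exposure for 2 h; potency is for protecting the cells against peroxide damage rather than for killing them.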

Sequence of Luciferin 4-monooxygenase (P08659 whole entry): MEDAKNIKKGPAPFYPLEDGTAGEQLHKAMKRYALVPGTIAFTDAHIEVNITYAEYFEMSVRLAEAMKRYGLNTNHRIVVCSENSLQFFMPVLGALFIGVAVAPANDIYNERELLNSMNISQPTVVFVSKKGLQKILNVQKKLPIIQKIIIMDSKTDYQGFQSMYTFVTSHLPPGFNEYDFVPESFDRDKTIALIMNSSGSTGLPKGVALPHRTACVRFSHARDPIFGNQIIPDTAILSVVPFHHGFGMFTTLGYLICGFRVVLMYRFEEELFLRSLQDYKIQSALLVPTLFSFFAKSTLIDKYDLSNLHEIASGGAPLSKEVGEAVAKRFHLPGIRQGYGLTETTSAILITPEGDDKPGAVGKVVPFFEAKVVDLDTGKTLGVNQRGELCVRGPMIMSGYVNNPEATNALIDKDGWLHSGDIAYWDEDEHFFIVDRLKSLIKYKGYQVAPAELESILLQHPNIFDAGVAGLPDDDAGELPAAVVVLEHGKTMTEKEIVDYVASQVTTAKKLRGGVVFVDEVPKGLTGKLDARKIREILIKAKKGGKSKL

Turning to `CC(C)(C)c1ccc(C(=O)NCC(=O)OCC(=O)Nc2nc(-c3ccc(F)cc3)cs2)cc1`, the EC50 in [1] is 19.9 µM (active); in experiment [2] it was > 120 µM (not active); with H4, 13.5 µM (active).

With `COc1ccc(-c2nn(-c3ccccc3)cc2/C=C(\C#N)S(=O)(=O)c2ccccc2)cc1OC`, the IC50 in experiment [3] was > 47.1 µM (inactive). The EC50 in [4] is > 53 µM (inactive).

As for `CC(C)(C)n1ncc2c(=O)n(CC(=O)c3ccc(Cl)cc3)cnc21`, the EC50 in experiment [1] was 0.168 µM (active); in experiment [2], 0.115 µM (active).

For the compound `COc1cccc2oc3cc(C#Cc4ccccn4)ccc3c(=O)c12`, the EC50 in [5] was > 112 µM (not active); in [6], 23.1 µM (active).

Consider `Cc1cc(C)cc(N2C(=O)NC(=O)/C(=C\c3cccn3-c3ccc(Cl)cc3)C2=O)c1`, for which the EC50 in [7] was 84.5 µM (active).

For the compound `COc1ccc(-c2cc(C(=O)Nc3ccccc3N3CCOCC3)c3ccccc3n2)cc1OC`, the IC50 in the experiment on H9c2 is > 79 µM (inactive).

`CC(c1nccs1)N(C)C(=O)c1cn(Cc2cccc3ccccc23)nn1` (configuration not stated): the values for the EC50 (in [1]; in experiment [2]; in the experiment on H4) were 13.2 µM (active), 18 µM (active) and 47.3 µM (active), respectively.

Consider `Cc1cccc(C(C)C)c1NC(=O)C(C)OC(=O)Cc1nnc(O)c2ccccc12` (configuration not stated), for which, in the experiment with H9c2, the IC50 is 21.1 µM (active).

In the case of `COCCN1CCN(C(=O)c2cc(COc3cc(C)ccc3C)on2)CC1`, the IC50 in experiment [3] was > 47.1 µM (inactive). The EC50 in experiment [4] was > 53 µM (inactive).

On to `CCOc1cccc(-c2nn3c(-c4ccco4)nnc3s2)c1`, for which, in the experiment on H9c2, the IC50 is > 79 µM (inactive).

Regarding `CC(C)N1CC(C(=O)Nc2ccc(Br)c(Cl)c2)CC1=O` (configuration not stated), in experiment [3], the IC50 was > 47.1 µM (inactive). In experiment [4], the EC50 is > 53 µM (inactive).

For the compound `Cc1nc2sccn2c(=O)c1S(=O)(=O)NC(C)c1ccccc1` (configuration not stated), the EC50 in [5] and in [6] was > 112 µM (not active) throughout.

For `Cc1ccc(Cn2c(SCC(=O)NCC3CCCO3)nc3ccsc3c2=O)cc1` (configuration not stated), the IC50 in experiment [3] was > 47.1 µM (inactive). Further, the EC50 in experiment [4] is > 53 µM (inactive).

Turning to `O=C(NCc1ccco1)C(c1ccccc1)N(C(=O)Cc1cccs1)c1ccccc1F` (configuration not stated), the IC50 with H9c2 was > 79 µM (inactive).

`COc1ccc([N+]2=C3CCc4ccccc4N3CC2(C)O)cc1` (configuration not stated): the EC50 (in experiment [1]; in experiment [2]; in the experiment with H4) was > 120 µM (not active) in each case.

As to `CSC1=NC(C)(C)CC2(C)Nc3ccccc3N12` (configuration not stated), the EC50 (in experiment [1]; in [2]; in the experiment on H4) was > 120 µM (not active) each time.

On to `CCC(C)(C)n1nnnc1C(c1cccc(C#N)c1)N1CCN(c2cccc(C)c2C)CC1` (configuration not stated), for which, in [3], the IC50 is > 47.1 µM (inactive). Further, the EC50 in experiment [4] is > 53 µM (inactive).

Consider `O=C(CSc1nc(-c2ccccc2)cs1)NCCN1C(=O)CSC1=O`, for which the EC50 in experiment [1] is 6.7 µM (active); in experiment [2] it was 31.1 µM (active); in the experiment on H4 it was 17.9 µM (active).

Regarding `Cn1c(=O)oc2cc(S(=O)(=O)NC3CCN(Cc4ccccc4)CC3)ccc21`, the EC50 in experiment [5] and in experiment [6] was > 112 µM (not active) each time.

For `Cc1ccccc1N(C(=O)c1snc(C(N)=O)c1N)C(C(=O)NCc1ccccc1)c1ccc(O)cc1` (configuration not stated), the IC50 in the experiment on H9c2 was > 79 µM (inactive).

`O=C(Nc1ccc(C(=O)N2CCCC2)cc1)c1ccccc1F`: the IC50 in experiment [3] is > 47.1 µM (inactive). For the same compound, the EC50 in experiment [4] is > 53 µM (inactive).

Regarding `CN(C)c1nc(NCc2ccccc2)nc(SCC(=O)Nc2ccccc2Cl)n1`, the IC50 in [3] is > 47.1 µM (inactive). Besides, the EC50 in [4] was > 53 µM (inactive).

Turning to `O=C(CCNC(=O)C1CCN(S(=O)(=O)c2ccccc2)CC1)NCc1ccc(Cl)c(Cl)c1`, the EC50 in experiment [5] and in experiment [6] was > 112 µM (not active) in each case.

On to `COc1ccc(OC)c(NC(=O)c2ccccc2NS(=O)(=O)c2cccc3cccnc23)c1`, for which the IC50 in experiment [3] was < 0.368 µM (active). Further, in [4], the EC50 was > 53 µM (inactive).

For `Cc1cc(C)n(Cc2cccc(F)c2)c(=O)c1C#N`, the EC50 in experiment [5] and in experiment [6] was > 112 µM (not active) in each case.

Consider `COc1ccc(C2CC(c3ccccc3OC(=O)/C=C/c3ccccc3)=NN2C(C)=O)cc1` (configuration not stated), for which the figures for the EC50 (in experiment [1]; in experiment [2]; with H4) were 14 µM (active), 18.5 µM (active) and 36.4 µM (active), respectively.

For `O=C(O)C1C2C=CC(C2)C1C(=O)NCc1ccccn1` (configuration not stated), the EC50 in [5] and in experiment [6] was > 112 µM (not active) throughout.

Consider `C=CCn1c(SCC(=O)Nc2sc3c(c2C#N)CCC3)nnc1C1COc2ccccc2O1` (configuration not stated), for which the figures for the EC50 in experiment [5] and in experiment [6] were > 112 µM (not active) and 39.7 µM (active), respectively.

With `CCOc1ccc(C(=O)Nc2nnc(S(=O)(=O)N(C)Cc3ccco3)s2)cc1`, the EC50 is 15.1 µM (active) in experiment [1], 0.162 µM (inconclusive) in [2] and 6.04 µM (active) in the experiment on H4.

For `CCOC(=O)COc1cccc2c(=O)n(CC(=O)NCCc3ccccc3)ccc12`, the results for the EC50 (in experiment [1]; in [2]; in the experiment on H4) were > 120 µM (not active), > 120 µM (not active) and 19.5 µM (active), respectively.

Take `CCN(c1ccc(NC(=O)COC(=O)c2ccc([N+](=O)[O-])o2)cc1)C(C)C`: the IC50 with H9c2 is > 79 µM (inactive).

As for `CCC1CCCCN1CCCNC(=O)c1cn(C)c2ccc(S(=O)(=O)N(C)C3CCCCC3)cc2c1=O` (configuration not stated), in experiment [3], the IC50 is > 47.1 µM (inactive). The EC50 in [4] is > 53 µM (inactive).

With `NC(=O)COC(=O)c1cccc(S(=O)(=O)N2CCCCC2)c1`, the IC50 in [3] was > 47.1 µM (inactive). The EC50 in experiment [4] was > 53 µM (inactive).

Take `COc1ccccc1C(=O)NC(=O)COC(=O)Cn1[nH]c(=O)c2ccccc2c1=O`: the IC50 in the experiment on H9c2 is > 79 µM (inactive).

Take `Cc1ccsc1/C=N\NC(=O)CCc1c(C)n[nH]c1C`: in experiment [3], the IC50 was > 47.1 µM (inactive). In experiment [4], the EC50 is > 53 µM (inactive).

As to `COc1ccc(-c2[nH]ncc2/C=N/NC(=O)c2ccc(Br)cc2)c(OC)c1`, the EC50 in [5] was 16.1 µM (active); in experiment [6] it was > 112 µM (not active).

On to `N#Cc1ccc(/C=N/NC(=O)CCc2ccc(S(=O)(=O)N3CCOCC3)cc2)cc1`, for which the EC50 in experiment [5] and in experiment [6] was > 112 µM (not active) in each case.

Regarding `O=C(O)c1ccc(/C=N/N2CCN(c3ccccc3)CC2)cc1`, the figures for the EC50 (in [1]; in experiment [2]; in the experiment with H4) were 0.687 µM (active), 19.6 µM (active) and > 120 µM (not active), respectively.
